According to publication PMC6877482, “Inhibition of AMD-Like Pathology With a Neurotrophic Compound in Aged Rats and 3xTg-AD Mice” (Frontiers in Aging Neuroscience, 2019):

Columns and labels:
[1] = tested on: retina of aged Fisher rats; experiment: Retinal morphology (H & E, rows and thickness of ONL and INL) in aged rats; assay type: in vivo, rat; details: female Fisher rats ~19-21 months, 500 nmoles/kg/day by gavage for 3 months
Description: (§1) Female aged (19–21 months) Fisher rats (n = 7) were given P021 per os by gavage (10 ml/kg body weight) once a day for 88 days. […] To be able to deliver the same constant dose to each animal, we chose gavage. Furthermore, the administration of P021 by gavage is more economical than by drinking water. As controls, the second group of aged (19–21 months) female rats (n = 7) and a group of young adult female rats (2–3 months, n = 7) were treated identically, but with normal saline (vehicle) only (Figure 1A). Administration of vehicle and test compound was done at 7–9 AM daily and blindly to the investigators who collected, processed, and analyzed the tissue.
(§2) The animals were anesthetized by using an overdose of avertin and then were transcardially perfused by using 0.1 M phosphate-buffered saline (PBS). Eyeballs were dissected out from the carcasses, immersion-fixed for 24 h in 4% paraformaldehyde at 4°C, and then transferred to 70% alcohol for storage; in the case of mice, the eyeballs were prefixed by injecting 4% paraformaldehyde, followed by removal from the carcasses and immersion fixation as above. After the cornea and lens of the left eyes were removed, the remaining eye cup was embedded in paraffin, with the orientation parallel to the optic nerve in longitudinal position. In all cases, 5-μm serial sections were cut by using a rotary microtome and were mounted on Superfrost Plus slides. Processing and analysis of the retinal tissue were conducted blind.
(§3) Every 25th retinal section was deparaffinized and subjected to hematoxylin and eosin (H & E) staining to evaluate the morphology. The H & E staining images were captured with a light microscope using 2×, 40×, and 100× objective lenses. Because there is no significant difference between the 1/5th to the 1/3rd of the retina from the optic nerve head and the most peripheral part, we chose the 1/5th position of the retina from the optic nerve to the most peripheral part of the retina as the “central,” and the most peripheral part of the retina as “peripheral.” Rows of the outer nuclear layer (ONL) and the inner nuclear layer (INL) of the retina in each group (every 25th section, 3–5 sections per rat or mouse, n = 5–7 rats per group; n = 5–6 mice per group) were manually counted in three columns per image by using a 40× or, where necessary, a higher magnification objective. The thicknesses of the ONL and INL of the central and peripheral retina in each group (every 25th section from the optic nerve head, 2–3 sections per rat or mouse, n = 3–7 rats per group; n = 5–6 mice per group) were measured and quantified by using the ImageJ/NIH image analysis system. Processing and analysis of the retinal tissue and the data were conducted blind to the genotypes and the treatment of the animals.

RPE of aged Fisher rats = experiment: RPE and BM pathology (H & E, auto-fluorescence deposits) in aged rats; assay type: in vivo, rat; details: female Fisher rats ~19-21 months, 500 nmoles/kg/day by gavage for 3 months
Description: as §1
(§4) The animals were anesthetized by using an overdose of avertin and then were transcardially perfused by using 0.1 M phosphate-buffered saline (PBS). […]
Every 25th retinal section was deparaffinized and subjected to hematoxylin and eosin (H & E) staining to evaluate the morphology. […] Because there is no significant difference between the 1/5th to the 1/3rd of the retina from the optic nerve head and the most peripheral part, we chose the 1/5th position of the retina from the optic nerve to the most peripheral part of the retina as the “central,” and the most peripheral part of the retina as “peripheral.” Rows of the outer nuclear layer (ONL) and the inner nuclear layer (INL) of the retina in each group (every 25th section, 3–5 sections per rat or mouse, n = 5–7 rats per group; n = 5–6 mice per group) were manually counted in three columns per image by using a 40× or, where necessary, a higher magnification objective. The thicknesses of the ONL and INL of the central and peripheral retina in each group (every 25th section from the optic nerve head, 2–3 sections per rat or mouse, n = 3–7 rats per group; n = 5–6 mice per group) were measured and quantified by using the ImageJ/NIH image analysis system. […]

retina of 3xTg-AD mice = experiment: Retinal morphology (H & E, rows and thickness of ONL and INL) in aged 3xTg-AD mice; assay type: in vivo, mouse; details: female 3xTg-AD mice, 60 nmoles P021/g feed from 3 to 21 months of age
Description: (§5) At approximately 3 months of age, the female wild type and 3xTg-AD mice were divided into five groups (n = 6–7 mice per group; Figure 3A): (1) wild type mice, age 3 months, without treatment (WT-3 m); (2) 3xTg-AD mice, age 3 months, without treatment (3xTg-3 m); (3) wild type mice, age 3 months, treated with vehicle feed without P021 until the age of 21 months (WT-21 m/Veh); (4) 3xTg-AD-mice, age 3 months, treated with vehicle feed without P021 until the age of 21 months (3xTg-21 m/Veh); and (5) 3xTg-AD-mice, age 3 months, treated with 60 nmol P021/g feed till the age of 21 months (3xTg-21 m/P021). The first two groups, WT-3 m and 3xTg-AD-3 m, were the starting points and were employed as controls to study age-associated AMD-like changes in WT-21 m and 3xTg-AD-21 m, respectively. We included WT-21 m/Veh as another reference group to enable a comparison of AMD-like changes in 3xTg-21 m/Veh with age-matched WT animals. […] P021 was formulated in the feed by Research Diets (New Brunswick, NJ, USA). Food consumption and body weight were recorded every 2 weeks and every month, respectively. The average mouse food consumption was ~2.7 g feed/day. The analysis of the animals was carried out blind to the treatment.
as §2, §3

[2] = tested on: RPE and BM of 3xTg-AD mice; experiment: RPE and BM pathology (H & E, auto-fluorescence deposits) in aged 3xTg-AD mice; assay type: in vivo, mouse; details: female 3xTg-AD mice, 60 nmoles P021/g feed from 3 to 21 months of age
Description: (§6) At approximately 3 months of age, the female wild type and 3xTg-AD mice were divided into five groups (n = 6–7 mice per group; Figure 3A): (1) wild type mice, age 3 months, without treatment (WT-3 m); (2) 3xTg-AD mice, age 3 months, without treatment (3xTg-3 m); (3) wild type mice, age 3 months, treated with vehicle feed without P021 until the age of 21 months (WT-21 m/Veh); (4) 3xTg-AD-mice, age 3 months, treated with vehicle feed without P021 until the age of 21 months (3xTg-21 m/Veh); and (5) 3xTg-AD-mice, age 3 months, treated with 60 nmol P021/g feed till the age of 21 months (3xTg-21 m/P021). The first two groups, WT-3 m and 3xTg-AD-3 m, were the starting points and were employed as controls to study age-associated AMD-like changes in WT-21 m and 3xTg-AD-21 m, respectively. […] Food consumption and body weight were recorded every 2 weeks and every month, respectively. […]
Every 25th retinal section was deparaffinized and subjected to hematoxylin and eosin (H & E) staining to evaluate the morphology. […] The thicknesses of the ONL and INL of the central and peripheral retina in each group (every 25th section from the optic nerve head, 2–3 sections per rat or mouse, n = 3–7 rats per group; n = 5–6 mice per group) were measured and quantified by using the ImageJ/NIH image analysis system. […]

Iba-1 [3] = experiment: Microgliosis, Iba-1 immunofluorescence in retina of 3xTg-AD mice; assay type: in vivo, mouse; details: female 3xTg-AD mice, 60 nmoles P021/g feed from 3 to 21 months of age
Description: as §6
(§7) Paraffin sections were deparaffinized, rehydrated, and subjected to antigen retrieval by boiling for 20 min in 10 mM sodium citrate solution (pH 6.0). […] The area to be analyzed was selected, converted to grayscale, and thresholded using Yen’s arithmetic, and the area percentage of positive staining was measured for each section by using the NIH ImageJ software package. The staining area was quantified from two to three sections of each eye and averaged (n = 5–7 animals per group).

Iba-1 [4] = experiment: Microgliosis, Iba-1 immunofluorescence in retina of aged rats; assay type: in vivo, rat; details: female Fisher rats ~19-21 months, 500 nmoles/kg/day by gavage for 3 months
Description: as §1, §4, §7

GFAP [5] = experiment: Astrogliosis, GFAP immunofluorescence in retina of 3xTg-AD mice; assay type: in vivo, mouse; details: female 3xTg-AD mice, 60 nmoles P021/g feed from 3 to 21 months of age
Description: as §5, §4, §7

GFAP [6] = experiment: Astrogliosis, GFAP immunofluorescence in retina of aged rats; assay type: in vivo, rat; details: female Fisher rats ~19-21 months, 500 nmoles/kg/day by gavage for 3 months; n = 6-7 rats; vs 22-24 m/Veh
Description: as §1, §4, §7

[7] = tested on: total tau, phosphorylated tau, Aβ/APP; experiment: Tau and Aβ pathologies, immunofluorescence in retina of aged rats; assay type: in vivo, rat; details: aged Fisher rats, 500 nmoles/kg/day by gavage for 3 months; qualitative, not quantified, 2-3 animals/group
Description: as §1, §4, §7

[8] = tested on: total tau, phosphorylated tau, Aβ/APP; experiment: Tau and Aβ pathologies, immunofluorescence in retina of aged 3xTg-AD mice; assay type: in vivo, mouse; details: 60 nmoles P021/g feed from 3 to 21 months of age, qualitative, not quantified, 2-3 animals/group
Description: as §6, §7

VEGF = VEGF immunofluorescence in retina and optic nerve of aged 3xTg-AD mice; assay type: in vivo, mouse; details: 60 nmoles P021/g feed from 3 to 21 months of age, qualitative, 2-3 animals/group
Description: as §6, §7

[9] = method not given, block ends with ref Kazim et al., 2014, cited from earlier work
Description: P021 is quite stable in artificial gastric juice (~90% for 30 min) and in artificial intestinal juice (>95% for 120 min).

[10] = commercial service (APREDICA, Watertown, MA, USA); ref Kazim et al., 2014; cited from earlier work
aged rats and mice = details: chronic oral treatment in aged rats and mice, earlier study; ref Kazim et al., 2014; cited from earlier work
Description: At as early as 12 months of age, OXYS rats and Wistar rats are known to show AMD-like pathology, such as BM thickening and lipofuscin accumulation (Neroev et al., [2008]; Markovets et al., [2011]). […] Here, to assess the AMD-like retinal pathology induced by aging and to study the effect of P021 on the p ...

Ac-DGGL^AG-NH2 [P021]
outer retinal folds and rosette-like structures in the central retina [1]: No abnormal structure like this was observed | rows and thickness of INL in the central retina [1]: no detectable effect | rows and thickness of ONL, central and peripheral retina ([1]; vs 22-24 m/Veh): prevented these pathological changes more effectively in the central retina | rows of INL in the peripheral retina ([1]; vs 22-24 m/Veh): showed a clear trend to rescue the number of rows | arrangement of apical microvilli (AM) in RPE (RPE of aged Fisher rats; H & E): showed improvement in the arrangement of AM | vacuolation and atrophy of RPE (RPE of aged Fisher rats; H & E): no apparent abnormalities were observed | lipofuscin granules and deposition number between RPE and Cho (RPE of aged Fisher rats; auto-fluorescence λex = 543, n = 7 rats, vs 22-24 m/Veh): markedly decreased | extension of ONL nuclei across the OPL or into the INL, central retina (retina of 3xTg-AD mice; H & E): this pathology was prevented | prevention of changes in rows and thickness of INL in the peripheral retina (retina of 3xTg-AD mice; vs 3xTg-21 m/Veh, H & E): did not reach significance | rows and thickness of INL in the central retina (retina of 3xTg-AD mice; vs 3xTg-21 m/Veh, H & E): prevented these changes | rows and thickness of ONL in the central retina (retina of 3xTg-AD mice; vs 3xTg-21 m/Veh, H & E): these changes in the central retina were prevented | rows and thickness of ONL in the peripheral retina (retina of 3xTg-AD mice; vs 3xTg-21 m/Veh, H & E): showed a trend to rescue these changes | rescue of INL thickness in the central retina (retina of 3xTg-AD mice; vs 3xTg-21 m/Veh, obvious trend): did not reach statistical significance | thickening of the BM ([2]; H & E): no BM thickening | number of deposits between the RPE and Cho ([2]; auto-fluorescence λex = 543, n = 5 mice, vs 3xTg-21 m/Veh): significantly reduced | distribution of Iba-1-positive staining in the central retina (Iba-1 [3]): only observed in the GCL | area percentage of Iba-1 immunostaining in the peripheral retina (Iba-1 [3]; NFL to ONL, n = 3-6 mice, vs 3xTg-21 m/Veh): decreased in 3xTg-21 m/P021 mice to the levels in WT-3 m/Veh and 3xTg-3 m/Veh mice | localization of Iba-1-positive microglial cells in the retina (Iba-1 [4]; especially central retina): no staining was found from the ONL to the OS | relative Iba-1 immunostaining from the NFL to the OS, central and peripheral retinas (Iba-1 [4]; n = 6-7 rats, vs 22-24 m/Veh): dramatically reduced | distribution of GFAP-positive staining in the retina (GFAP [5]): limited to the NFL and GCL | area percentage of GFAP in the peripheral retina, changes between groups (GFAP [5]; n = 3-6 mice, similar trend, large standard error): did not reach statistical significance | area percentage of GFAP from the NFL to the ONL in the central retina (GFAP [5]; n = 5-6 mice, vs 3xTg-21 m/Veh): reduced by P021 treatment to the levels in WT-3 m/Veh and 3xTg-3 m/Veh mice | GFAP staining in central and peripheral retinas (GFAP [6]): reduced very much | tau and Aβ pathologies in the retina (R134d, PHF-1, AT8, 4G8, Aβ immunofluorescence) [7]: prevented the trend in the increase in tau and Aβ pathologies | tau and Aβ pathologies in the retina (R134d, PHF-1, AT8, 4G8, Aβ immunofluorescence) [8]: prevented the trend in the increase in tau and Aβ pathologies | VEGF staining in the optic nerve (VEGF): the size of the staining patch was decreased | localization of VEGF-positive spots in the retina (VEGF): limited mainly to the GCL to the IPL | stability in artificial gastric juice ([9]; 30 min): ~ 90% | stability in artificial intestinal juice ([9]; 120 min): > 95% | BBB crossing [10]: a sufficient amount of P021 crossed the BBB | general physical state / side effects (aged rats and mice): did not observe any worsening in general physical state
